ChEMBL document CHEMBL3585277, “Novel type of plasmin inhibitors: providing insight into P4 moiety and alternative scaffold to pyrrolopyrimidine” (Bioorg Med Chem, 2015)

Legend:
[1] = biological target: Urokinase-type plasminogen activator (Homo sapiens, UniProt P00749); assay: Inhibition of urokinase (unknown origin) using Pyr-Gly-Arg-MCA as substrate by fluorescence analysis
Plasminogen [2] = biological target: T1, Plasminogen (Homo sapiens, UniProt P00747); assay: Inhibition of plasmin (unknown origin) using Boc-Val-Leu-Lys-MCA as substrate by fluorescence analysis
T1 sequence (P00747 97-580 limits assumed): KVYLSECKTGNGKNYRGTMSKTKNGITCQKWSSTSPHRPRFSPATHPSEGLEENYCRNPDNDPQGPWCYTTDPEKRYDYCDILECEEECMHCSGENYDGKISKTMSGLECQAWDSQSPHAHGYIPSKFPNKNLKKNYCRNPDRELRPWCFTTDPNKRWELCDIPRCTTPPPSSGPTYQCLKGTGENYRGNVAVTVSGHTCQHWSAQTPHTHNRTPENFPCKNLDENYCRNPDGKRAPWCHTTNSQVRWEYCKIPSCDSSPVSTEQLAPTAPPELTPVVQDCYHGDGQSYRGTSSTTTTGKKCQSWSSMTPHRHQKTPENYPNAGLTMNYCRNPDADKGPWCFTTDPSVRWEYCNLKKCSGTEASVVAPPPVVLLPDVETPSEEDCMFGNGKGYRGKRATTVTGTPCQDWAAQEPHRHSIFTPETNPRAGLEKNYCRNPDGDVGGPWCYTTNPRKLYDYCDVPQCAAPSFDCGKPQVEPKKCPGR
T1 sequence (P00747 581-810 limits assumed): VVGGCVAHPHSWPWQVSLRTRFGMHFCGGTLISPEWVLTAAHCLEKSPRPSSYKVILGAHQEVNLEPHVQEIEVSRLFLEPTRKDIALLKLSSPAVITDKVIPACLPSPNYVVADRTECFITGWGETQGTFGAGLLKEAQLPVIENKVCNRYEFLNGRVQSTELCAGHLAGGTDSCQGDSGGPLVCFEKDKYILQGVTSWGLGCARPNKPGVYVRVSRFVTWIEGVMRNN

Plasminogen [3] = biological target: T1, Plasminogen; assay: Inhibition of plasmin (unknown origin) assessed as relative potency using Boc-Val-Leu-Lys-MCA as substrate by fluorescence analysis

Row | Structure (SMILES) | IC50 [1] [µM] | IC50 (Plasminogen [2]) [µM] | fold change (FC) (Plasminogen [3])
1 | Cn1c(CN2C(=O)CN(c3ccc(Oc4ccncc4)cc3)C2=O)cc2cnc(C(=O)N[C@H](C#N)CCCCN)nc21 | > 200 | 74 | –
2 | Cn1c(CN2C(=O)CN(c3ccc(Oc4ccccc4)cc3)C2=O)nc2cc(C(=O)N[C@H](C#N)CCCCN)ccc21 | – | > 200 | –
3 | Cn1c(CN2C(=O)CN(c3ccc4oc(=O)n(Cc5ccncc5)c4c3)C2=O)cc2cnc(C(=O)N[C@H](C#N)CCCCN)nc21 | – | 23 | –
4 | CCCn1c(=O)oc2cc(N3CC(=O)N(Cc4cc5cnc(C(=O)N[C@H](C#N)CCCCN)nc5n4C)C3=O)ccc21 | – | 160 | –
5 | Cn1c(CN2C(=O)CN(c3ccc4c(c3)oc(=O)n4C)C2=O)cc2cnc(C(=O)N[C@H](C#N)CCCCN)nc21 | – | 130 | 3.9
6 | CC(C)Cn1c(=O)oc2ccc(N3CC(=O)N(Cc4cc5cnc(C(=O)N[C@H](C#N)CCCCN)nc5n4C)C3=O)cc21 | – | 29 | –
7 | Cn1c(CN2C(=O)CN(c3ccc4oc(=O)n(C)c4c3)C2=O)cc2cnc(C(=O)N[C@H](C#N)CCCCN)nc21 | – | 43 | 3.1
8 | CCCn1c(=O)oc2ccc(N3CC(=O)N(Cc4cc5cnc(C(=O)N[C@H](C#N)CCCCN)nc5n4C)C3=O)cc21 | – | 26 | –
9 | CC(C)Cn1c(=O)oc2cc(N3CC(=O)N(Cc4cc5cnc(C(=O)N[C@H](C#N)CCCCN)nc5n4C)C3=O)ccc21 | – | > 200 | –
10 | Cn1c(CN2C(=O)CN(c3ccc4c(c3)oc(=O)n4Cc3ccncc3)C2=O)cc2cnc(C(=O)N[C@H](C#N)CCCCN)nc21 | – | > 200 | –

Further lines, results first:

Row | IC50 [1] [µM] | IC50 (Plasminogen [2]) [µM] | fold change (FC) (Plasminogen [3]) | Structure (SMILES)
11 | > 200 | 56 | – | Cn1c(CN2C(=O)CN(c3ccc(Oc4ccncc4)cc3)C2=O)nc2ccc(C(=O)N[C@H](C#N)CCCCN)cc21
12 | – | 25 | – | Cn1c(CN2C(=O)CN(c3ccc(Oc4ccccc4)cc3)C2=O)nc2ccc(C(=O)N[C@H](C#N)CCCCN)cc21
13 | > 200 | 43 | 3 | Cn1c(CN2C(=O)CN(c3ccc(F)cc3)C2=O)cc2cnc(C(=O)N[C@H](C#N)CCCCN)nc21
14 | > 200 | 14 | 1 | Cn1c(CN2C(=O)CN(c3ccc(Oc4ccccc4)cc3)C2=O)cc2cnc(C(=O)N[C@H](C#N)CCCCN)nc21
15 | > 200 | 100 | – | Cn1c(CN2C(=O)CN(c3ccc(F)cc3)C2=O)nc2ccc(C(=O)N[C@H](C#N)CCCCN)cc21
16 | – | > 200 | > 14.3 | N#C[C@H](CCCCN)NC(=O)c1nc2cc(CN3C(=O)CN(c4ccc(F)cc4)C3=O)ccc2o1
